Structures can show the parent of a compound that is named as a salt. Where two headings read alike, the source gives them in different places.
How the values were obtained:
expanded OPCs = experiment: cells; settings: for 0.1 µM (% DMSO) / 1 µM (% DMSO) / 10 µM (% DMSO): alamarBlue viability of expanded OPCs; for 0.1 µM (% DMSO): compound at 0.1 µM; for 1 µM (% DMSO): compound at 1 µM; for 10 µM (% DMSO): compound at 10 µM; for viability at 0.1 µM / viability at 1 µM / viability at 10 µM: Rattus norvegicus, 72 h
Experimental: Having established a consistent assay for measuring OL differentiation in vitro, the next step was to utilize this assay to assess the ability of a wide array of compounds to promote OL differentiation. Prior to library screening, we first established the maximum non-toxic dose of each compound in the library. […] Therefore, we added each compound in the NIH clinical collection (NCC) library to OPCs at 10, 1, and 0.1 µM concentrations. Three days later, we assessed viability of the treated cells by measuring AlamarBlue fluorescence, a measure of cell viability (see “Methods” section). […] Appropriately, we established three sets of screening concentrations for library compounds: non-toxic compounds were tested at 10 and 2 µM, slightly toxic compounds (only toxic at 10 µM) were tested at 2 and 0.4 µM, and very toxic compounds were tested at 0.4 and 0.08 µM.
OPCs were expanded in vitro by seeding into PDL-coated tissue culture flasks at 1000–2000 cells/cm^2 in differentiation media supplemented with 10 ng/ml PDGF-AA. Proliferating OPCs were fed every 2–3 days and supplemented with 2–3× concentration of PDGF as needed to prevent OPC differentiation. After 6–7 days of proliferation, OPCs were harvested by trypsinization, plated into PDL-coated 96-well Falcon plates and centrifuged at 200×g to facilitate cell attachment, survival, and even distribution of cells. Expanded OPCs were seeded in differentiation media at 10,000 cells/well and incubated for 2 h at 37 °C, 10 % CO2 prior to addition of compounds. The NCC library was diluted and added to cells at 10, 1, and 0.1 µM; each concentration was tested in quadruplicate. As a positive control for the induction of toxicity, 5 ng/ml tunicamycin was added to 8 wells in each plate. Three days later, a 1:10 dilution of alamarBlue® (AB) was added to each well and cells were incubated 4 h at 37 °C, 10 % CO2. AB fluorescence was measured using a PerkinElmer Victor II fluorescence microplate reader (PerkinElmer, Waltham, MA) with 560 nm excitation/590 nm emission filters. For library screening, the highest concentration of each compound was adjusted to a minimally toxic concentration based on this toxicity data. Compounds were additionally tested at a second concentration that was 1/5th of the top concentration. The final concentration of DMSO in each well was 0.1 %.

[1] = tested on: acutely dissociated and purified rat OPCs; experiment: Acute OL differentiation assay (MBP expression/cell, immunofluorescent image quantification); type: cell-based; settings: sheet "All OLga data"; for activation at 0.4 µM / activation at 2 µM / activation at 10 µM / activation at 0.08 µM: Rattus norvegicus; for activation at 0.08 µM: test compound at 0.08 uM, read-out: 0.08 uM (% Quet)
In short: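 Oligodendrocyte precursor cells were enriched from P6-P7 Sprague–Dawley rat brains by immunopanning (RAN-2 and GalC depletion, O4 selection), plated at 5000 cells/well in serum-free, mitogen-free differentiation media on PDL/laminin 96-well view plates, centrifuged at 200×g, and pre-incubated 1–2 h before test compounds were added in quadruplicate. On DIV4, cells were fixed, stained for MBP and DAPI, imaged automatically, and MBP expression per cell was quantified.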

[2] = test compound at 0.4 uM, NCC library screen, relative to quetiapine, read-out: 0.4 uM (% Quet)
[3] = test compound at 2 uM, NCC library screen, relative to quetiapine, read-out: 2 uM (% Quet)
[4] = read-out: 0.1 µM (% DMSO), alamarBlue viability of expanded OPCs, compound at 0.1 µM, sheet All Tox data
[5] = read-out: 1 µM (% DMSO), alamarBlue viability of expanded OPCs, compound at 1 µM, sheet All Tox data
[6] = read-out: 10 µM (% DMSO), alamarBlue viability of expanded OPCs, compound at 10 µM, sheet All Tox data
[7] = 2 uM test compound, relative to quetiapine, read-out: OL differentiation, 2 uM (% Quet)
[8] = 10 uM test compound, relative to quetiapine, read-out: OL differentiation, 10 uM (% Quet)
[9] = read-out: 0.1 µM (% DMSO), alamarBlue viability, NCC library compound at 0.1 µM, sheet "All Tox data"
[10] = read-out: 1 µM (% DMSO), alamarBlue viability, NCC library compound at 1 µM, sheet "All Tox data"
[11] = read-out: 10 µM (% DMSO), alamarBlue viability, NCC library compound at 10 µM, sheet "All Tox data"
[12] = NCC library screen, relative to quetiapine
[13] = test compound at 2 uM, MBP expression relative to quetiapine, NCC library screen, read-out: 2 uM (% Quet)
[14] = test compound at 10 uM, MBP expression relative to quetiapine, NCC library screen, read-out: 10 uM (% Quet)
[15] = test compound at 10 uM, NCC library screen, relative to quetiapine, read-out: 10 uM (% Quet)

## Nc1c2c(nc3c1CCC3)CCCC2 [Amiridine]
Expanded OPCs; sheet All Tox data
  0.1 µM (% DMSO): 87.3 % DMSO
  1 µM (% DMSO): 86.4 % DMSO
  10 µM (% DMSO): 89.5 % DMSO
[1]; 2 uM test compound, relative to quetiapine
  OL differentiation, 2 uM (% Quet): 7.6 % Quet
[1]; 10 uM test compound, relative to quetiapine
  OL differentiation, 10 uM (% Quet): 34.5 % Quet

## CN(C)CCC=C1c2ccccc2CCc2ccccc21 [Amitriptyline]
Expanded OPCs; relative to DMSO control
  0.1 µM (% DMSO): 82.0 % DMSO
  1 µM (% DMSO): 60.1 % DMSO
  10 µM (% DMSO): 18.3 % DMSO
[1]; [2]
  activation at 0.4 µM: -6%
[1]; [3]
  activation at 2 µM: -23.5%

## CC(C)c1ccc2oc3nc(N)c(C(=O)O)cc3c(=O)c2c1 [Amlexanox]
Expanded OPCs; [4]
  viability at 0.1 µM: 84.3%
Expanded OPCs; [5]
  viability at 1 µM: 88.6%
Expanded OPCs; [6]
  viability at 10 µM: 91.9%
[1]; [7]
  activation at 2 µM: -11.6%
[1]; [8]
  activation at 10 µM: -20%

## CCOC(=O)C1=C(COCCN)NC(C)=C(C(=O)OC)C1c1ccccc1Cl (stereo not drawn) [Amlodipine]
Expanded OPCs; [9]
  viability at 0.1 µM: 69.7%
Expanded OPCs; [10]
  viability at 1 µM: 22.7%
Expanded OPCs; [11]
  viability at 10 µM: 8.6%
[1]; [12]
  activation at 0.08 µM: -17.1%
[1]; [2]
  activation at 0.4 µM: -39.6%

## Clc1ccc2c(c1)C(N1CCNCC1)=Nc1ccccc1O2 [Amoxapine]
Expanded OPCs; [9]
  viability at 0.1 µM: 62%
Expanded OPCs; [10]
  viability at 1 µM: 40%
Expanded OPCs; [11]
  viability at 10 µM: 19.2%
[1]; [12]
  activation at 0.08 µM: 13%
[1]; [2]
  activation at 0.4 µM: -10.8%

## CC1(C)S[C@@H]2[C@H](NC(=O)[C@H](N)c3ccc(O)cc3)C(=O)N2[C@H]1C(=O)O [Amoxicillin]
Expanded OPCs; relative to DMSO control
  0.1 µM (% DMSO): 93.8 % DMSO
  1 µM (% DMSO): 104.4 % DMSO
  10 µM (% DMSO): 96.1 % DMSO
[1]; [13]
  activation at 2 µM: 17.9%
[1]; [14]
  activation at 10 µM: -7%

## CC1(C)S[C@@H]2[C@H](NC(=O)[C@H](N)c3ccccc3)C(=O)N2[C@H]1C(=O)O [Ampicillin]
Expanded OPCs; relative to DMSO control
  0.1 µM (% DMSO): 88.7 % DMSO
  1 µM (% DMSO): 94.1 % DMSO
  10 µM (% DMSO): 94.1 % DMSO
[1]; [13]
  activation at 2 µM: -10.9%
[1]; [14]
  activation at 10 µM: -36.2%

## CCOC(=O)OC(C)OC1=C(C(=O)Nc2ccccn2)N(C)S(=O)(=O)c2ccccc21 (stereo not drawn) [Ampiroxicam]
Expanded OPCs; [9]
  viability at 0.1 µM: 97.8%
Expanded OPCs; [10]
  viability at 1 µM: 82.6%
Expanded OPCs; [11]
  viability at 10 µM: 90.8%
[1]; [3]
  activation at 2 µM: 12.7%
[1]; [15]
  activation at 10 µM: -2%

## O=C1CN2Cc3c(ccc(Cl)c3Cl)N=C2N1 [Anagrelide hydrochloride]
Expanded OPCs; [9]
  viability at 0.1 µM: 93.1%
Expanded OPCs; [10]
  viability at 1 µM: 90.4%
Expanded OPCs; [11]
  viability at 10 µM: 81.2%
[1]; [7]
  activation at 2 µM: -7%
[1]; [8]
  activation at 10 µM: -4.5%

## CC(C)(C#N)c1cc(Cn2cncn2)cc(C(C)(C)C#N)c1 [Anastrozole]
Expanded OPCs; [9]
  viability at 0.1 µM: 87.4%
Expanded OPCs; [10]
  viability at 1 µM: 92.9%
Expanded OPCs; [11]
  viability at 10 µM: 80.3%
[1]; [3]
  activation at 2 µM: -29.6%
[1]; [15]
  activation at 10 µM: -33%

## CC1CNc2c(cccc2S(=O)(=O)N[C@@H](CCCNC(=N)N)C(=O)N2CC[C@@H](C)C[C@@H]2C(=O)O)C1 (stereo partly drawn) [Argatroban]
Expanded OPCs; [4]
  viability at 0.1 µM: 103%
Expanded OPCs; [5]
  viability at 1 µM: 101%
Expanded OPCs; [6]
  viability at 10 µM: 93%
[1]; [7]
  activation at 2 µM: 0.26%
[1]; [8]
  activation at 10 µM: 2.3%

## O=C1CCc2ccc(OCCCCN3CCN(c4cccc(Cl)c4Cl)CC3)cc2N1 [Aripiprazole]
Expanded OPCs; [4]
  viability at 0.1 µM: 88.2%
Expanded OPCs; [5]
  viability at 1 µM: 86.5%
Expanded OPCs; [6]
  viability at 10 µM: 11.3%
[1]; 0.4 uM test compound, relative to quetiapine, read-out: OL differentiation, 0.4 uM (% Quet)
  activation at 0.4 µM: -30.6%
[1]; [7]
  activation at 2 µM: -18.8%

— PMC5011342, “A high throughput drug screening assay to identify compounds that promote oligodendrocyte differentiation using acutely dissociated and purified oligodendrocyte precursor cells” (BMC Research Notes, 2016)
